Results as given in patent US20230293629A1, “METHODS FOR ATTENUATING RELEASE OF INFLAMMATORY MEDIATORS AND PEPTIDES USEFUL THEREIN” (BIOMARCK PHARMACEUTICALS LTD., priority 2006, published 2023).

System: MARCKS phosphorylation in NHBE cells
Test: MARCKS phosphorylation in NHBE cells, radiolabeled immunoprecipitation assay
Type: cell-based, human
Settings: 100 nM PMA, NHBE cells
Protocol: Radiolabeled Immunoprecipitation Assay—When labeling with [^32P]phosphate, cells were preincubated for 2 h in phosphate-free Dulbecco's modified Eagle's medium containing 0.2% bovine serum albumin and then labeled with 0.1 mCi/ml [^32P]orthophosphate (9000 Ci/mmol, PerkinElmer Life Sciences) for 2 h. For labeling with [^3H]myristic acid or 3H-amino acids, cells were incubated overnight in medium containing 50 μCi/ml [^3H]myristic acid (49 Ci/mmol, PerkinElmer Life Sciences) or 0.2 mCi/ml [^3H]leucine (159 Ci/mmol, PerkinElmer Life Sciences) plus 0.4 mCi/ml [^3H]proline (100 Ci/mmol, PerkinElmer Life Sciences). Following labeling, cells were exposed to stimulatory reagents for 5 min. When an inhibitor was used, cells were preincubated with the inhibitor for 15 min prior to stimulation. At the end of the treatments, cells were lysed in a buffer containing 50 mM Tris-HCl (pH 7.5), 150 mM NaCl, 1 mM EDTA, 10% glycerol, 1% Nonidet P-40, 1 mM phenylmethylsulfonyl fluoride, 1 mM benzamidine, 10 μg/ml pepstatin A, and 10 μg/ml leupeptin. Trichloroacetic acid precipitation and scintillation counting may determine the radiolabeling efficiency in each culture. Immunoprecipitation of MARCKS protein was carried out according to the method of Spizz and Blackshear using cell lysates containing equal counts/min. Spizz et al., J. Biol. Chem. 271, 553-562 (1996). Precipitated proteins were resolved by 8% SDS-polyacrylamide gel electrophoresis and visualized by autoradiography. Anti-human MARCKS antibody (2F12) and nonimmune control antibody (6F6) were used in this assay.
To assess MARCKS or MARCKS-associated protein complexes in different subcellular fractions, radiolabeled and treated cells were scraped into a homogenization buffer (50 mM Tris-HCl (pH 7.5), 10 mM NaCl, 1 mM EDTA, 1 mM phenylmethylsulfonyl fluoride, 1 mM benzamidine, 10 μg/ml pepstatin A, 10 μg/ml leupeptin) and then disrupted by nitrogen cavitation (800 pounds/square inch for 20 min at 4° C.). Cell lysates were centrifuged at 600×g for 10 min at 4° C. to remove nuclei and unbroken cells. Post-nuclear supernatants were separated into membrane and cytosol fractions by ultracentrifugation at 400,000×g for 30 min at 4° C. The membrane pellet was solubilized in the lysis buffer by sonication. Immunoprecipitation was then carried out as described above.

Q: `CCCCCCCCCCCCCC(=O)O[C@@H]1[C@@H](C)[C@@]2(O)[C@@H](C=C(CO)C[C@]3(O)C(=O)C(C)=C[C@@H]23)[C@@H]2C(C)(C)[C@]12OC(C)=O` [PMA, phorbol 12-myristate 13-acetate] was tested. Which “increase in MARCKS phosphorylation” value did it give?
A: 3-4 fold
